Assays:
[1] = tested on: ECHCG (Echinochloa crus-galli); test: Preemergence herbicidal evaluation; assay type: in vivo, (L.) Beau; details: rated 4-5 weeks after treatment
Method in brief: (§1)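 Seeds mixed with potting soil were planted atop about one inch of soil, then sprayed with test compound in aqueous acetone. Cups were kept in the greenhouse and rated visually 4–5 weeks after treatment on a 0–9 scale against untreated control.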

SETVI (Setaria viridis) = test: Preemergence herbicidal evaluation; assay type: in vivo, (L.) Beau; details: rated 4-5 weeks after treatment
Method in brief: as §1

[2] = tested on: GLXMAW (Soybean, Williams); test: Preemergence herbicidal evaluation; assay type: in vivo, Glycine max, (L.) Merr. cv Williams; details: rated 4-5 weeks after treatment
[3] = tested on: MOOVA (Monochoria vaginalis); test: Flooded paddy, preemergence weed control; assay type: in vivo, Presl.; details: rated 3-4 weeks after treatment, 0-9 rating scale
Method in brief: (§2)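 Visual 0–9 ratings versus controls scored stand, vigor, malformation, size, chlorosis and overall appearance. Plants grew from seeds or propagating organs sown 0.5 cm deep in silt loam, with water held 1.5–3 cm above the soil for the whole test under greenhouse care.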

[4] = tested on: IPOHE (Ipomoea hederacea); test: Postemergence herbicidal evaluation; assay type: in vivo, (L.) Jacq.; details: postemergence
Method in brief: (§3)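 Seedlings grown for about two weeks were sprayed postemergence and then kept under standard greenhouse care. Injury was rated visually 4–5 weeks after treatment on a 0–9 scale against untreated controls, and ratings from repeat tests were averaged.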

[5] = tested on: TRZAWR (Wheat, Winter, cv Riband); test: Preemergence herbicidal evaluation; assay type: in vivo, Triticum aestivum; details: rated 4-5 weeks after treatment
Method in brief: as §1

[6] = tested on: ABUTH (Abutilon theophrasti); test: Postemergence herbicidal evaluation; assay type: in vivo, Medic.; details: postemergence
Method in brief: as §3

[7] = tested on: GLXMAW (Soybean, Williams); test: Postemergence herbicidal evaluation; assay type: in vivo, Glycine max, (L.) Merr. cv Williams; details: postemergence
Method in brief: as §3

[8] = tested on: AMBEL (Ambrosia artemisifolia); test: Preemergence herbicidal evaluation; assay type: in vivo, L.; details: rated 4-5 weeks after treatment
Method in brief: as §1

[9] = tested on: CASOB (Cassia obtusifolia); test: Preemergence herbicidal evaluation; assay type: in vivo, L.; details: rated 4-5 weeks after treatment
Method in brief: as §1

[10] = tested on: CHEAL (Chenopodium album); test: Preemergence herbicidal evaluation; assay type: in vivo, L.; details: rated 4-5 weeks after treatment
Method in brief: as §1

ORYSAT (Rice, Tebonnet) [11] = test: Postemergence herbicidal evaluation; assay type: in vivo, Oryza sativa, (L.) Tebonnet; details: postemergence
Method in brief: as §3

[12] = tested on: AMBEL (Ambrosia artemisifolia); test: Postemergence herbicidal evaluation; assay type: in vivo, L.; details: postemergence
Method in brief: as §3

[13] = tested on: CASOB (Cassia obtusifolia); test: Postemergence herbicidal evaluation; assay type: in vivo, L.; details: postemergence
Method in brief: as §3

[14] = tested on: CHEAL (Chenopodium album); test: Postemergence herbicidal evaluation; assay type: in vivo, L.; details: postemergence
Method in brief: as §3

[15] = tested on: IPOHE (Ipomoea hederacea); test: Preemergence herbicidal evaluation; assay type: in vivo, (L.) Jacq.; details: rated 4-5 weeks after treatment
CYPIR (Cyperus iria) = test: Flooded paddy, preemergence weed control; assay type: in vivo; details: rated 3-4 weeks after treatment, 0-9 rating scale
Method in brief: as §2

ZEAMX (Corn, Field) = test: Preemergence herbicidal evaluation; assay type: in vivo, Zea mays, L.; details: rated 4-5 weeks after treatment
ORYSAT (Rice, Tebonnet) [16] = test: Flooded paddy, post-transplant rice tolerance; assay type: in vivo, Oryza sativa, (L.) Tebonnet; details: flooded paddy, post-transplant rice, rated 3-4 weeks after treatment, 0-9 rating scale
Method in brief: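 Scores (0-9) reflect visual injury relative to untreated plants in flooded silt loam. Each pot held two transplanted ten-day-old seedlings under 1.5 to 3 cm standing water in the greenhouse.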

[17] = tested on: ABUTH (Abutilon theophrasti); test: Preemergence herbicidal evaluation; assay type: in vivo, Medic.; details: rated 4-5 weeks after treatment

Cn1c(C(F)(F)F)cc(=O)n(-c2ccc3snc(C4(C)OCCO4)c3c2)c1=O [Compound 54, 1-methyl-3-[3-(2-methyl-1,3-dioxolan-2-yl)-1,2-benzisothiazol-5-yl]-6-(trifluoromethyl)uracil]
7.0: ORYSAT herbicidal rating (ORYSAT (Rice, Tebonnet) [11]; rate 0.1250 kg/ha) | herbicidal rating, ORYSAT (rice tolerance) (ORYSAT (Rice, Tebonnet) [16]; rate 0.0080 kg/ha)
7.5: herbicidal rating, CYPIR (CYPIR (Cyperus iria); rate 0.0320 kg/ha)
2.0: CASOB herbicidal rating ([13]; rate 0.0320 kg/ha)
6.5: ORYSAT herbicidal rating (ORYSAT (Rice, Tebonnet) [11]; rate 0.0620 kg/ha)
9.0: Preemergence herbicidal rating ECHCG ([1]; Rate 0.0620 kg/ha) | Preemergence herbicidal rating ECHCG ([1]; Rate 0.1250 kg/ha) | Preemergence herbicidal rating ECHCG ([1]; Rate 0.2500 kg/ha) | Preemergence herbicidal rating SETVI (SETVI (Setaria viridis); Rate 0.0620 kg/ha) | Preemergence herbicidal rating SETVI (SETVI (Setaria viridis); Rate 0.1250 kg/ha) | Preemergence herbicidal rating SETVI (SETVI (Setaria viridis); Rate 0.2500 kg/ha) | Preemergence herbicidal rating GLXMAW ([2]; Rate 0.0620 kg/ha) | Preemergence herbicidal rating GLXMAW ([2]; Rate 0.1250 kg/ha) | Preemergence herbicidal rating GLXMAW ([2]; Rate 0.2500 kg/ha) | herbicidal rating, MOOVA ([3]; rate 0.0320 kg/ha) | herbicidal rating, MOOVA ([3]; rate 0.1250 kg/ha) | IPOHE herbicidal rating ([4]; rate 0.0320 kg/ha) | IPOHE herbicidal rating ([4]; rate 0.0620 kg/ha) | IPOHE herbicidal rating ([4]; rate 0.1250 kg/ha) | Preemergence herbicidal rating TRZAWR ([5]; Rate 0.0620 kg/ha) | Preemergence herbicidal rating TRZAWR ([5]; Rate 0.1250 kg/ha) | Preemergence herbicidal rating TRZAWR ([5]; Rate 0.2500 kg/ha) | ABUTH herbicidal rating ([6]; rate 0.0320 kg/ha) | ABUTH herbicidal rating ([6]; rate 0.0620 kg/ha) | ABUTH herbicidal rating ([6]; rate 0.1250 kg/ha) | GLXMAW herbicidal rating ([7]; rate 0.1250 kg/ha) | Preemergence herbicidal rating AMBEL ([8]; Rate 0.0620 kg/ha) | Preemergence herbicidal rating AMBEL ([8]; Rate 0.1250 kg/ha) | Preemergence herbicidal rating AMBEL ([8]; Rate 0.2500 kg/ha) | Preemergence herbicidal rating CASOB ([9]; Rate 0.0620 kg/ha) | Preemergence herbicidal rating CASOB ([9]; Rate 0.1250 kg/ha) | Preemergence herbicidal rating CASOB ([9]; Rate 0.2500 kg/ha) | Preemergence herbicidal rating CHEAL ([10]; Rate 0.0620 kg/ha) | Preemergence herbicidal rating CHEAL ([10]; Rate 0.1250 kg/ha) | Preemergence herbicidal rating CHEAL ([10]; Rate 0.2500 kg/ha) | AMBEL herbicidal rating ([12]; rate 0.0320 kg/ha) | AMBEL herbicidal rating ([12]; rate 0.0620 kg/ha) | AMBEL herbicidal rating ([12]; rate 0.1250 kg/ha) | CASOB herbicidal rating ([13]; rate 0.0620 kg/ha) | CASOB herbicidal rating ([13]; rate 0.1250 kg/ha) | CHEAL herbicidal rating ([14]; rate 0.0620 kg/ha) | CHEAL herbicidal rating ([14]; rate 0.1250 kg/ha) | Preemergence herbicidal rating IPOHE ([15]; Rate 0.0620 kg/ha) | Preemergence herbicidal rating IPOHE ([15]; Rate 0.1250 kg/ha) | Preemergence herbicidal rating IPOHE ([15]; Rate 0.2500 kg/ha) | herbicidal rating, CYPIR (CYPIR (Cyperus iria); rate 0.1250 kg/ha) | Preemergence herbicidal rating ZEAMX (ZEAMX (Corn, Field); Rate 0.2500 kg/ha) | herbicidal rating, ORYSAT (rice tolerance) (ORYSAT (Rice, Tebonnet) [16]; rate 0.1250 kg/ha) | Preemergence herbicidal rating ABUTH ([17]; Rate 0.0620 kg/ha) | Preemergence herbicidal rating ABUTH ([17]; Rate 0.1250 kg/ha) | Preemergence herbicidal rating ABUTH ([17]; Rate 0.2500 kg/ha)
5.0: ORYSAT herbicidal rating (ORYSAT (Rice, Tebonnet) [11]; rate 0.0320 kg/ha) | CHEAL herbicidal rating ([14]; rate 0.0320 kg/ha)
8.5: GLXMAW herbicidal rating ([7]; rate 0.0620 kg/ha) | Preemergence herbicidal rating ZEAMX (ZEAMX (Corn, Field); Rate 0.1250 kg/ha) | herbicidal rating, ORYSAT (rice tolerance) (ORYSAT (Rice, Tebonnet) [16]; rate 0.0320 kg/ha)
0.0: herbicidal rating, CYPIR (CYPIR (Cyperus iria); rate 0.0080 kg/ha)
8.0: GLXMAW herbicidal rating ([7]; rate 0.0320 kg/ha) | Preemergence herbicidal rating ZEAMX (ZEAMX (Corn, Field); Rate 0.0620 kg/ha)

Source: patent US6706663B2, “Herbicidal 3-heterocyclic substituted benzisothiazole and benzisoxazole compounds” (Wyeth, priority 2000, dated 2004)
